Experimental data as given in paper PMC10743905, “Design, Synthesis, and In Vitro and In Vivo Bioactivity Studies of Hydrazide–Hydrazones of 2,4-Dihydroxybenzoic Acid” (International Journal of Molecular Sciences, 2023).
Converted amounts (≈) assume the structure as drawn. “Also recorded” adds a separate entry of the source.

How the values were obtained:
[1] = test system: Candida albicans ATCC 10231; test: Broth microdilution MIC/MFC; assay type: cell-based; conditions: for MFC: ATCC10231, read-out: MFC; for MIC: ATCC10231, read-out: MIC
Outline: (§1)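 Preliminary agar screening used 2 mg/mL compound with incubation at 37°C for 24 h (bacteria) or 30°C for 48 h (fungi). Subsequent MIC determination: two-fold broth microdilution, 1000 to 0.488 µg/ml final.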

[2] = test system: Candida parapsilosis ATCC 22019; test: Broth microdilution MIC/MFC; assay type: cell-based; conditions: for MFC / MIC: Lodderomyces parapsilosis; for MFC: ATCC22019, read-out: MFC; for MIC: ATCC22019, read-out: MIC
Outline: as §1

[3] = test system: Candida krusei ATCC 14243; test: Broth microdilution MIC/MFC; assay type: cell-based; conditions: for MFC / MIC: Pichia kudriavzevii; for MFC: ATCC14243, read-out: MFC; for MIC: ATCC14243, read-out: MIC
Outline: as §1

[4] = test system: Candida albicans ATCC 2091; test: Broth microdilution MIC/MFC; assay type: cell-based; conditions: for MFC: ATCC2091, read-out: MFC; for MIC: ATCC2091, read-out: MIC
Outline: as §1

[5] = test system: Candida glabrata ATCC 90030; test: Broth microdilution MIC/MFC; assay type: cell-based; conditions: for MFC / MIC: Nakaseomyces glabratus; for MFC: ATCC90030, read-out: MFC; for MIC: ATCC90030, read-out: MIC
Outline: as §1

Danio rerio embryos = test: Fish Embryo Acute Toxicity (FET) test, OECD No. 236; conditions: for toxicity for zebrafish embryos and larvae (in words): FET test, based on LC50; for heart rate vs negative (E3) and solvent (1% DMSO) controls: zebrafish larvae, 96 h; for percentage of non-lethal morphological abnormalities: zebrafish larvae 96 hpf
Experimental: Wild-type AB strain zebrafish (Danio rerio) were housed in the Experimental Medicine Centre of Medical University of Lublin (Lublin, Poland), where all the experimental procedures on embryos and larvae were carried out. The animals were kept on a recirculating water supply at 26 ± 1 °C and a 10/14 dark–light cycle, and they were fed with artemia and commercial feed. Danio rerio embryos were obtained from females between 4 and 15 months of age. […] In order to avoid genetic bias in the study, eggs were randomly collected from at least three breeding groups, rinsed, and placed in Petri dishes in the cultured medium, which for Danio rerio is E3 solution. […] In accordance with the legislation of the European Union and Poland, the experiments performed on the earliest life-stages of Danio rerio until 120 h post-fertilization (120 hpf), not defined as protected, are not subject to regulations for animal experimentation.
They address the testing of chemicals using the Fish Embryo Acute Toxicity (FET) test with the species Danio rerio.
Immediately after fertilization, eggs were placed in sterile 24-well plates and exposed for 96 h to at least five concentrations of the test chemical, ranging from 1 to 500 µM and prepared ex tempore on each day of exposure, according to the principle of one egg per well and one concentration per plate. In each plate, 20 wells were filled with the solutions of the tested substance, and 4 wells of the last column were a negative internal control with E3 medium. Each well was filled with 2 mL of solution. Positive control plates were also prepared according to this scheme with 4 mg/L of 3,4-dichloroaniline (Sigma-Aldrich, Poznań, Poland) and a negative control with E3, and a negative solvent control with 1% DMSO, which was used as a solvent for the tested substances. At four time points, microscopic observations were made every 24 h. As indicators of mortality (so-called terminal observations; when at least one of these occurs, embryonic death is declared), the following were recorded: the coagulation of embryos, a lack of somite formation, a lack of detachment of the tail from the yolk sac and a lack of a heartbeat, which was observed from the 48th hour of the study. To confirm the absence of a heartbeat, a microscopic observation was conducted at 80× magnification for one minute. Then, the solutions of the tested chemicals, to maintain their constant composition throughout the test, were replaced with fresh ones, and the plates were incubated for another 24 h in an incubator at 26 ± 1 °C. […] In addition, a quantitative and qualitative summary of the morphological and physiological abnormalities that occurred in the tested Danio rerio embryos and larvae was also made. These included yolk sac edema, pericardial edema, spinal flexure, head deformities, tail deformities, developmental delay defined as a lack of hatching success for 96 hpf larvae, and also bradycardia.
Regression analysis was performed with Excel, and the above-mentioned values were obtained from the linear type of regression analysis. […] The results obtained from the heart rate study of 96 hpf zebrafish larvae were subjected to statistical analysis using one-way analysis of variance (ANOVA) and a post hoc Bonferroni test. The significance level was taken as p < 0.05.

[6] = zebrafish, 500 µM (150.62 mg/L)

| SMILES | MFC/MIC [1] | MFC [1] | MIC [1] | MFC/MIC [2] | MFC [2] | MIC [2] | MFC/MIC [3] | MFC [3] | MIC [3] | MFC/MIC [4] | MFC [4] | MIC [4] | MFC/MIC [5] | MFC [5] | MIC [5] | toxicity for zebrafish embryos and larvae (in words) (Danio rerio embryos) | other results |
| --- | --- | --- | --- | --- | --- | --- | --- | --- | --- | --- | --- | --- | --- | --- | --- | --- | --- |
| O=C(N/N=C/c1cc(I)cc(I)c1O)c1ccc(O)cc1O [Compound 18, 2,4-dihydroxy-N-[(2-hydroxy-3,5-diiodophenyl)methylidene]benzohydrazide] | > 1 | > 1000 µg/mL | 1000 µg/mL (≈ 1.91 mM) | > 2 | > 1000 µg/mL | 500 µg/mL (≈ 0.954 mM) | > 1 | > 1000 µg/mL | 1000 µg/mL (≈ 1.91 mM) | > 2 | > 1000 µg/mL | 500 µg/mL (≈ 0.954 mM) | > 1 | > 1000 µg/mL | 1000 µg/mL (≈ 1.91 mM) | – | – |
| O=C(N/N=C/c1ccccc1F)c1ccc(O)cc1O [Compound 24, N-[(2-fluorophenyl)methylidene]-2,4-dihydroxybenzohydrazide] | > 1 | > 1000 µg/mL | 1000 µg/mL (≈ 3.65 mM) | > 1 | > 1000 µg/mL | 1000 µg/mL (≈ 3.65 mM) | > 1 | > 1000 µg/mL | 1000 µg/mL (≈ 3.65 mM) | > 1 | > 1000 µg/mL | 1000 µg/mL (≈ 3.65 mM) | – | – | > 1000 µg/mL | nontoxic | heart rate vs negative (E3) and solvent (1% DMSO) controls (Danio rerio embryos; 50 µM (13.71 mg/L)): no changes; heart rate vs negative (E3) and solvent (1% DMSO) controls (Danio rerio embryos; 100 µM (27.42 mg/L), p < 0.01): decrease in heartbeat (bradycardia); heart rate vs negative (E3) and solvent (1% DMSO) controls (Danio rerio embryos; 500 µM (137.12 mg/L), p < 0.001): the reduction was very statistically significant; percentage of pericardial edema (Danio rerio embryos; zebrafish, 100 µM (27.42 mg/L)): 65%; percentage of pericardial edema (Danio rerio embryos; zebrafish, 500 µM (137.12 mg/L)): 85% |
| CCCc1ccc(/C=N/NC(=O)c2ccc(O)cc2O)cc1 [Compound 13, 2,4-dihydroxy-N-[(4-propylphenyl)methylidene]benzohydrazide] | > 1 | > 1000 µg/mL | 1000 µg/mL (≈ 3.35 mM) | > 1 | > 1000 µg/mL | 1000 µg/mL (≈ 3.35 mM) | – | – | > 1000 µg/mL | – | – | > 1000 µg/mL | > 1 | > 1000 µg/mL | 1000 µg/mL (≈ 3.35 mM) | – | – |
| O=C(N/N=C/c1cccc([N+](=O)[O-])c1)c1ccc(O)cc1O [Compound 20, 2,4-dihydroxy-N-[(3-nitrophenyl)methylidene]benzohydrazide] | > 1 | > 1000 µg/mL | 1000 µg/mL (≈ 3.32 mM) | > 1 | > 1000 µg/mL | 1000 µg/mL (≈ 3.32 mM) | – | – | > 1000 µg/mL | – | – | > 1000 µg/mL | – | – | > 1000 µg/mL | nontoxic | percentage of non-lethal morphological abnormalities (Danio rerio embryos): ≤ 25% |
| O=C(N/N=C/c1ccccc1Br)c1ccc(O)cc1O [Compound 23, N-[(2-bromophenyl)methylidene]-2,4-dihydroxybenzohydrazide] | > 1 | > 1000 µg/mL | 1000 µg/mL (≈ 2.98 mM) | > 1 | > 1000 µg/mL | 1000 µg/mL (≈ 2.98 mM) | – | – | > 1000 µg/mL | > 1 | > 1000 µg/mL | 1000 µg/mL (≈ 2.98 mM) | – | – | > 1000 µg/mL | quite toxic | percentage of yolk sac edema (Danio rerio embryos; zebrafish embryos and larvae, 100 µM (35.52 mg/L)): 80% |
| O=C(N/N=C/c1ccccc1[N+](=O)[O-])c1ccc(O)cc1O [Compound 19, 2,4-dihydroxy-N-[(2-nitrophenyl)methylidene]benzohydrazide] | > 4 | > 1000 µg/mL | 250 µg/mL (≈ 0.83 mM) | > 4 | > 1000 µg/mL | 250 µg/mL (≈ 0.83 mM) | > 2 | > 1000 µg/mL | 500 µg/mL (≈ 1.66 mM) | > 2 | > 1000 µg/mL | 500 µg/mL (≈ 1.66 mM) | > 2 | > 1000 µg/mL | 500 µg/mL (≈ 1.66 mM) | nontoxic; also recorded: negligible toxicity | percentage of non-lethal morphological abnormalities (Danio rerio embryos): ≤ 25% |
| O=C(N/N=C/c1ccc([N+](=O)[O-])cc1)c1ccc(O)cc1O [Compound 21, 2,4-dihydroxy-N-[(4-nitrophenyl)methylidene]benzohydrazide] | > 2 | > 1000 µg/mL | 500 µg/mL (≈ 1.66 mM) | > 2 | > 1000 µg/mL | 500 µg/mL (≈ 1.66 mM) | > 2 | > 1000 µg/mL | 500 µg/mL (≈ 1.66 mM) | > 1 | > 1000 µg/mL | 1000 µg/mL (≈ 3.32 mM) | – | – | > 1000 µg/mL | moderate toxicity | percentage of development delay (Danio rerio embryos; [6]): 10%; percentage of tail malformation (Danio rerio embryos; [6]): 55% |
| O=C(N/N=C/c1ccccc1Cl)c1ccc(O)cc1O [Compound 22, N-[(2-chlorophenyl)methylidene]-2,4-dihydroxybenzohydrazide] | > 1 | > 1000 µg/mL | 1000 µg/mL (≈ 3.44 mM) | > 1 | > 1000 µg/mL | 1000 µg/mL (≈ 3.44 mM) | > 1 | > 1000 µg/mL | 1000 µg/mL (≈ 3.44 mM) | > 1 | > 1000 µg/mL | 1000 µg/mL (≈ 3.44 mM) | – | – | > 1000 µg/mL | quite toxic | – |
